Measurements taken from the NIST ThermoML archive (doi:10.1016/j.jct.2005.02.011).

How the values were obtained:
[1] = 298.15 K; 101.33 kPa; Liquid
[2] = xn = mol fraction of the nth substance listed; details: 298.15 K, 101.33 kPa, Liquid
[3] = excess molar enthalpy (molar enthalpy of mixing); xn = mol fraction of the nth substance listed; details: 298.15 K, 101.33 kPa, Liquid

COC(F)(F)C(F)(F)C(F)(F)C(F)(F)F [1-methoxy-nonafluorobutane]
Details | mass density [kg/m3]
[1] | 1516.5

COC(F)(F)C(F)(F)C(F)(F)C(F)(F)F [1-methoxy-nonafluorobutane] + CCCCOCCO
Details | excess molar enthalpy, [3] [kcal/mol] | mass density, [2] [kg/m3]
x1 = 0.02507 | – | 915.04
x1 = 0.05001 | 0.04 | –
x1 = 0.05002 | – | 932.88
x1 = 0.1 | 0.0726 | –
x1 = 0.1001 | – | 969.14
x1 = 0.1499 | – | 1004.19
x1 = 0.1998 | – | 1038.73
x1 = 0.2 | 0.122 | –
x1 = 0.2497 | – | 1072.68
x1 = 0.2995 | – | 1105.83
x1 = 0.3 | 0.157 | –
x1 = 0.3499 | – | 1138.71
x1 = 0.4001 | 0.18 | –
x1 = 0.41 | – | 1176.96
x1 = 0.4499 | – | 1201.93
x1 = 0.5001 | 0.195 | –
x1 = 0.5155 | – | 1242.24
x1 = 0.5499 | – | 1262.86
x1 = 0.5501 | 0.2 | –
x1 = 0.5999 | – | 1292.53
x1 = 0.6001 | 0.202 | –
x1 = 0.65 | – | 1321.64
x1 = 0.6501 | 0.203 | –
x1 = 0.6999 | – | 1350.17
x1 = 0.7 | 0.2 | –
x1 = 0.7499 | – | 1378.23
x1 = 0.75 | 0.194 | –
x1 = 0.8 | 0.184 | 1405.94
x1 = 0.85 | 0.168 | –
x1 = 0.8502 | – | 1433.58
x1 = 0.9 | 0.142 | –
x1 = 0.9002 | – | 1461.09
x1 = 0.95 | 0.1 | 1488.03
x1 = 0.9749 | – | 1501.9
x1 = 0.975 | 0.0629 | –
x1 = 1 | – | 1516.5

COC(F)(F)C(F)(F)C(F)(F)C(F)(F)F [1-methoxy-nonafluorobutane] + CCOCCO
Details | excess molar enthalpy [kcal/mol] | mass density [kg/m3]
[2], x1 = 0.00503 | – | 929.7
[2], x1 = 0.01079 | – | 934.97
[2], x1 = 0.02102 | – | 944.32
[2], x1 = 0.02987 | – | 952.74
[2], x1 = 0.04002 | – | 961.9
[2], x1 = 0.04998 | – | 970.86
[2], x1 = 0.05985 | – | 979.66
[2], x1 = 0.07003 | – | 988.6
[2], x1 = 0.07976 | – | 997.21
[2], x1 = 0.09179 | – | 1007.4
[2], x1 = 0.09978 | – | 1014.34
[2], x1 = 0.1998 | – | 1094.44
[2], x1 = 0.2999 | – | 1166.16
[2], x1 = 0.3998 | – | 1230.34
[2], x1 = 0.4998 | – | 1288.32
[2], x1 = 0.5999 | – | 1340.92
[2], x1 = 0.6998 | – | 1389.17
[2], x1 = 0.7996 | – | 1433.24
[2], x1 = 0.9003 | – | 1475.39
[2], x1 = 0.9098 | – | 1479.22
[2], x1 = 0.9198 | – | 1482.97
[2], x1 = 0.9304 | – | 1487.24
[2], x1 = 0.9399 | – | 1491.41
[2], x1 = 0.9502 | – | 1495.54
[2], x1 = 0.9587 | – | 1499
[2], x1 = 0.969 | – | 1503.23
[2], x1 = 0.9802 | – | 1507.87
[2], x1 = 0.9901 | – | 1512.09
[2], x1 = 0.9949 | – | 1514.04
[2], x1 = 1 | – | 1516.5
[3], x1 = 0.05001 | 0.0376 | –
[3], x1 = 0.1 | 0.0615 | –
[3], x1 = 0.2 | 0.0937 | –
[3], x1 = 0.3 | 0.117 | –
[3], x1 = 0.4001 | 0.135 | –
[3], x1 = 0.5001 | 0.149 | –
[3], x1 = 0.5501 | 0.153 | –
[3], x1 = 0.6001 | 0.158 | –
[3], x1 = 0.6501 | 0.159 | –
[3], x1 = 0.7 | 0.159 | –
[3], x1 = 0.75 | 0.157 | –
[3], x1 = 0.8 | 0.151 | –
[3], x1 = 0.85 | 0.141 | –
[3], x1 = 0.9 | 0.121 | –
[3], x1 = 0.95 | 0.0866 | –
[3], x1 = 0.9507 | 0.0867 | –
[3], x1 = 0.975 | 0.056 | –

COC(F)(F)C(F)(F)C(F)(F)C(F)(F)F [1-methoxy-nonafluorobutane] + COCCO
Details | excess molar enthalpy, [3] [kcal/mol] | mass density, [2] [kg/m3]
x1 = 0.00553 | – | 965.99
x1 = 0.01007 | – | 970.85
x1 = 0.02663 | – | 988.18
x1 = 0.02992 | – | 991.62
x1 = 0.03967 | – | 1001.54
x1 = 0.04976 | – | 1011.78
x1 = 0.05 | 0.0487 | –
x1 = 0.05995 | – | 1021.9
x1 = 0.06979 | – | 1031.53
x1 = 0.07991 | – | 1041.28
x1 = 0.08992 | – | 1050.63
x1 = 0.09992 | – | 1059.88
x1 = 0.1 | 0.0727 | –
x1 = 0.1999 | – | 1144.03
x1 = 0.2 | 0.1 | –
x1 = 0.2999 | – | 1215.05
x1 = 0.3 | 0.119 | –
x1 = 0.4 | – | 1275.68
x1 = 0.4001 | 0.133 | –
x1 = 0.5 | 0.144 | –
x1 = 0.5001 | – | 1328.23
x1 = 0.5501 | 0.149 | –
x1 = 0.5997 | – | 1373.83
x1 = 0.6001 | 0.154 | –
x1 = 0.6501 | 0.153 | –
x1 = 0.7001 | 0.153 | 1414.55
x1 = 0.75 | 0.151 | –
x1 = 0.8001 | 0.146 | –
x1 = 0.8005 | – | 1451
x1 = 0.85 | 0.137 | –
x1 = 0.8997 | – | 1483.83
x1 = 0.9 | 0.121 | –
x1 = 0.9106 | – | 1487.37
x1 = 0.9204 | – | 1490.55
x1 = 0.9304 | – | 1493.65
x1 = 0.9403 | – | 1496.79
x1 = 0.95 | 0.0872 | –
x1 = 0.9508 | – | 1500.13
x1 = 0.9604 | – | 1503.16
x1 = 0.971 | – | 1506.5
x1 = 0.975 | 0.0582 | –
x1 = 0.98 | – | 1509.57
x1 = 0.99 | – | 1512.86
x1 = 0.9948 | – | 1514.59
x1 = 1 | – | 1516.5

COC(F)(F)C(F)(F)C(F)(F)C(F)(F)F [1-methoxy-nonafluorobutane] + COCCOCCO
Details | mass density [kg/m3]
[2], x1 = 1 | 1516.5

COC(F)(F)C(F)(F)C(F)(F)C(F)(F)F [1-methoxy-nonafluorobutane] + COCCOCCOC
Details | excess molar enthalpy [kcal/mol] | mass density [kg/m3]
[2], x1 = 0.02464 | – | 954.08
[2], x1 = 0.0497 | – | 969.75
[2], x1 = 0.1001 | – | 1001.04
[2], x1 = 0.1498 | – | 1031.72
[2], x1 = 0.1998 | – | 1062.36
[2], x1 = 0.2496 | – | 1092.61
[2], x1 = 0.2994 | – | 1122.54
[2], x1 = 0.3493 | – | 1152.22
[2], x1 = 0.3998 | – | 1181.93
[2], x1 = 0.4496 | – | 1210.92
[2], x1 = 0.4998 | – | 1239.78
[2], x1 = 0.5495 | – | 1268.27
[2], x1 = 0.5999 | – | 1296.83
[2], x1 = 0.6499 | – | 1324.79
[2], x1 = 0.6993 | – | 1352.36
[2], x1 = 0.7495 | – | 1380.12
[2], x1 = 0.7996 | – | 1407.65
[2], x1 = 0.8498 | – | 1435.09
[2], x1 = 0.8997 | – | 1462.11
[2], x1 = 0.9498 | – | 1489.22
[2], x1 = 0.9749 | – | 1502.87
[2], x1 = 1 | – | 1516.5
[3], x1 = 0.05001 | 0.0399 | –
[3], x1 = 0.1 | 0.066 | –
[3], x1 = 0.15 | 0.081 | –
[3], x1 = 0.2 | 0.0883 | –
[3], x1 = 0.25 | 0.0919 | –
[3], x1 = 0.3 | 0.0915 | –
[3], x1 = 0.35 | 0.0883 | –
[3], x1 = 0.4001 | 0.0839 | –
[3], x1 = 0.5001 | 0.0705 | –
[3], x1 = 0.6001 | 0.0546 | –
[3], x1 = 0.7 | 0.038 | –
[3], x1 = 0.8 | 0.022 | –
[3], x1 = 0.9 | 0.00844 | –
[3], x1 = 0.95 | 0.00265 | –

COCCOCCOC [2,5,8-trioxanonane]
Details | mass density [kg/m3]
[1] | 938.62

COCCOCCOC [2,5,8-trioxanonane] + COC(F)(F)C(F)(F)C(F)(F)C(F)(F)F
Details | mass density [kg/m3]
[2], x2 = 0 | 938.62

COCCOCCO [2-(2-methoxyethoxy)ethanol]
Details | mass density [kg/m3]
[1] | 1015.6

COCCOCCO [2-(2-methoxyethoxy)ethanol] + COC(F)(F)C(F)(F)C(F)(F)C(F)(F)F
Details | excess molar enthalpy, [3] [kcal/mol] | mass density, [2] [kg/m3]
x2 = 0 | – | 1015.6
x2 = 0.02479 | – | 1031.94
x2 = 0.04975 | – | 1048.37
x2 = 0.05006 | 0.0519 | –
x2 = 0.09963 | – | 1080.8
x2 = 0.1001 | 0.0713 | –
x2 = 0.1498 | – | 1112.38
x2 = 0.1999 | – | 1142.86
x2 = 0.2002 | 0.0873 | –
x2 = 0.2495 | – | 1172.17
x2 = 0.2996 | – | 1200.75
x2 = 0.3003 | 0.0967 | –
x2 = 0.3996 | – | 1254.72
x2 = 0.4003 | 0.102 | –
x2 = 0.4503 | 0.103 | –
x2 = 0.4994 | – | 1304.76
x2 = 0.5003 | 0.103 | –
x2 = 0.5503 | 0.103 | –
x2 = 0.5984 | – | 1351.61
x2 = 0.6003 | 0.103 | –
x2 = 0.6503 | 0.102 | –
x2 = 0.699 | – | 1396.09
x2 = 0.7003 | 0.101 | –
x2 = 0.7499 | – | 1417.68
x2 = 0.7998 | – | 1438.09
x2 = 0.8002 | 0.0953 | –
x2 = 0.85 | – | 1458.09
x2 = 0.8999 | – | 1477.55
x2 = 0.9001 | 0.0773 | –
x2 = 0.9501 | 0.055 | 1496.84
x2 = 0.9749 | – | 1506.46

CCCCOCCO [2-butoxyethan-1-ol]
Details | mass density [kg/m3]
[1] | 896.25

CCCCOCCO [2-butoxyethan-1-ol] + COC(F)(F)C(F)(F)C(F)(F)C(F)(F)F
Details | mass density [kg/m3]
[2], x2 = 0 | 896.25

CCOCCO [2-ethoxyethan-1-ol]
Details | mass density [kg/m3]
[1] | 924.92

CCOCCO [2-ethoxyethan-1-ol] + COC(F)(F)C(F)(F)C(F)(F)C(F)(F)F
Details | mass density [kg/m3]
[2], x2 = 0 | 924.92

COCCO [2-methoxyethan-1-ol]
Details | mass density [kg/m3]
[1] | 960.01

COCCO [2-methoxyethan-1-ol] + COC(F)(F)C(F)(F)C(F)(F)C(F)(F)F
Details | mass density [kg/m3]
[2], x2 = 0 | 960.01
